According to patent EP2842965A1, “Neuromedin U analogs comprising serum albumin binding amino acid residue” (Gubra ApS, priority 2013, dated 2015):
Starred links: 1 amine or outer side, 2 acyl side, 3 side chain; linkers in the order of their positions; H or OH if unused. Residues, ends and D or L forms follow the SMILES beside them. Groups on a side chain read outwards from the residue. *: point of attachment. γGlu = O=C(O)[C@H](CCC(=O)[*:2])N[*:1]; Palmitoyl = CCCCCCCCCCCCCCCC(=O)*

Each molecule was assayed against T1, Neuromedin U receptor 2 (NMUR2) (Homo sapiens, UniProt Q9GZQ4) (assay: Functional assay (IP3 SPA-ysi assay) in HEK293 cells transfected with NMUR2). Details: HEK293 cells transiently transfected with NMUR2; head says cAMP, method describes IP3 SPA readout.
T1 construct: expressed in transfected cells; host or cells: HEK293 cells, transient calcium phosphate transfection; the empty-vector control is pcDNA3
Assay type: cell-based
Method: All compounds were dissolved in dimethyl sulfoxide (DMSO), and then water was added (total DMSO conc. was 80%). The stock concentration was 1 mM for all the compounds. Stocks were alliquoted and frozen -20°C.
The day before each assay a new standard row was prepared by dilution of the stock solution in assay buffer (1 mM acetic acid + 0.1% bovine serum albumin (BSA)). The following concentrations were prepared (depending on the ligand potency): 10^-5, 10^-6, 10^-7, 10^-7.5, 10^-8, 10^-8.5, 10^-9, 10^-10, 10^-11, 10^-12 M.
Cell cultures: The HEK293 cells are grown in (DMEM31966 glutamax supplemented with 10% FBS (fetal bovine serum) and 1% penicillin G and streptomycin) and incubated at 37°C with 10% CO2 in a humidified atmosphere. The cells were split as follows. HEK293 cells approximately 80% confluent was used. The cells were removed from the bottom of the bottle by removing the media (DMEM31966 glutamax supplemented with 10% FBS and 1% penicillin G and streptomycin), rinsed with 5 mL phosphate buffered saline (PBS) and shaken gently. The PBS was removed and cells were released from the bottom with trypsin (1-2 mL) and incubated for 2-3 min. The flasks were then turned gently to ensure complete release of the cells from the bottom. Then media was added to the cells, (5-8 mL was used to rinse the cells of the bottom, this process was repeated approximately 4 times using the same media). Cell suspension was then transferred to a new bottle (approximately 4 × 10^6 cells per 175 cm^2 flask) and 20 mL media was added. Cells were incubated at 37°C with 10% CO2 in a humidified atmosphere.
Transfection of cells: HEK293 cells were seeded out at the density of 8 × 10^6 cells per 175 cm^2 flask 1 day prior to the transfection. Before transfection of cells, the culture medium was aspirated and half of the standard volume was added. 40 µg receptor-containing plasmid (Neuromedin U receptor 1 (NMUR1) or Neuromedin U receptor 2 (NMUR2)) or "empty" vector plasmid (pcDNA3), as a negative control, was mixed with 60 µL […] CaCl2 and Tris-EDTA (TE) buffer (10 mM tris(hydroxymethyl)aminomethane hydrochloride (Tris HCl), 1 mM ethylenedinitrilotetraacetic acid (EDTA), pH 7.5) to a total volume of 480 µL. The mixture was added drop-wise to another tube containing 480 µL 2 × HEPES buffered saline (HBS buffer) (280 mM NaCl, 50 mM 4-(2-Hydroxyethyl)piperazine-1-ethanesulfonic acid (HEPES), 1.5 mM NaHPO4, pH 7.2) and left for 45 min at room temperature for DNA precipitation. Afterwards, the precipitate was added carefully to the cells and cells were incubated for 5 hours at normal culture conditions. The transfection was stopped by change of the DNA-containing medium with 20 mL of fresh cell culture medium.
Seeding of the cells in 96 well plates: One day after transfection, cells were harvested using trypsin as described above. The cells were seeded in a poly-D-lysine coated clear 96 well plate. 100 µL cell suspension 350.000 cells/mL was added. 3H-myo-inositol (5µL/mL) was added to each well yielding a concentration of 35000 cells/well. The cells were incubated overnight before assay procedure the following day.
IP3 SPA-ysi assay: The media was removed and the plates were washed with 200 µL of Hank's balanced salt solution (HBSS) (Gibco, Life Technologies). 100 µL of HBSS/10 mM LiCl was added and the plates were incubated 15 min at 37°C. 5 µL ligand was added to each well and the plate was incubated at 37°C for 70-90 min (incubation time was approximately 1 h and 16 min for all plates). The plates were placed on ice and 50 µL formic acid (10 mM) was added to each well. The plates was left on ice for at least 30 min. 20 µL was then transferred to a white 96 well plate and 80 µL yttrium silicate (YSi) SPA-beads RPNQ0010 (Perkin Elmer) solution (0.0125 g/mL) is added to each well. The plates were sealed and shaken on high speed for 30 min, then centrifuged for 5 min at 1500 rpm and counted with 8 hours delay in the top counter. […]

T1 sequence (Q9GZQ4 whole entry): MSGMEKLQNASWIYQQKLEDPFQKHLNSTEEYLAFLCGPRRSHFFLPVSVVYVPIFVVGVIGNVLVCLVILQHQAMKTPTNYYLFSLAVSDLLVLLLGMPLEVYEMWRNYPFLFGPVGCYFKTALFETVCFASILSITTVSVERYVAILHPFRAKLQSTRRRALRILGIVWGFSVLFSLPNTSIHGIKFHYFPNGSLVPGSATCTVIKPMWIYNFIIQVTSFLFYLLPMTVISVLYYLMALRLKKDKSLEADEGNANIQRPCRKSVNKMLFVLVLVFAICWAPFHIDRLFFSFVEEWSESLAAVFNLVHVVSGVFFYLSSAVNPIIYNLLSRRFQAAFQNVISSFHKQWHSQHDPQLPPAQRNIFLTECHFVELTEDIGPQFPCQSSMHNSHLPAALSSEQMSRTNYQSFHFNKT

Q: How did the EC50 turn out when `CCCCCCCCCCCCCCCC(=O)N[C@@H](CCC(=O)NCCCC[C@H](NC(=O)[C@H](CCC(N)=O)NC(=O)[C@H](CO)NC(=O)[C@H](C)NC(=O)[C@H](Cc1ccccc1)NC(=O)[C@@H]1CCCN1C(=O)[C@H](CO)NC(=O)[C@H](CCC(N)=O)NC(=O)[C@H](Cc1ccccc1)NC(=O)[C@H](CCC(=O)O)NC(=O)[C@H](CCC(=O)O)NC(=O)[C@H](CC(=O)O)NC(=O)[C@@H](NC(=O)[C@H](CCCNC(=N)N)NC(=O)[C@@H](N)Cc1ccccc1)C(C)C)C(=O)N[C@@H](CCCNC(=N)N)C(=O)NCC(=O)N[C@@H](Cc1ccc(O)cc1)C(=O)N[C@@H](Cc1ccccc1)C(=O)N[C@@H](CC(C)C)C(=O)N[C@@H](Cc1ccccc1)C(=O)N[C@@H](CCCNC(=N)N)C(=O)N1CCC[C@H]1C(=O)N[C@@H](CCCNC(=N)N)C(=O)N[C@@H](CC(N)=O)C(N)=O)C(=O)O` [SEQ ID NO 5] (H-FRVDEEFQSPFASQK([γGlu-Palmitoyl])RGYFLFRPRN-NH2) was run?
A: 162 nM

Q: How did the EC50 turn out when `CCCCCCCCCCCCCCCC(=O)N[C@@H](CCC(=O)NCCCC[C@H](NC(=O)[C@H](C)NC(=O)[C@H](Cc1ccccc1)NC(=O)[C@@H]1CCCN1C(=O)[C@H](CO)NC(=O)[C@H](CCC(N)=O)NC(=O)[C@H](Cc1ccccc1)NC(=O)[C@H](CCC(=O)O)NC(=O)[C@H](CCC(=O)O)NC(=O)[C@H](CC(=O)O)NC(=O)[C@@H](NC(=O)[C@H](CCCNC(=N)N)NC(=O)[C@@H](N)Cc1ccccc1)C(C)C)C(=O)N[C@@H](CCC(N)=O)C(=O)N[C@@H](CO)C(=O)N[C@@H](CCCNC(=N)N)C(=O)NCC(=O)N[C@@H](Cc1ccc(O)cc1)C(=O)N[C@@H](Cc1ccccc1)C(=O)N[C@@H](CC(C)C)C(=O)N[C@@H](Cc1ccccc1)C(=O)N[C@@H](CCCNC(=N)N)C(=O)N1CCC[C@H]1C(=O)N[C@@H](CCCNC(=N)N)C(=O)N[C@@H](CC(N)=O)C(N)=O)C(=O)O` [SEQ ID NO 8] (H-FRVDEEFQSPFAK([γGlu-Palmitoyl])QSRGYFLFRPRN-NH2) was run?
A: 155 nM

Q: How did the EC50 turn out when `CCCCCCCCCCCCCCCC(=O)N[C@@H](CCC(=O)NCCCC[C@H](NC(=O)[C@H](CCC(=O)O)NC(=O)[C@H](CC(=O)O)NC(=O)[C@@H](NC(=O)[C@H](CCCNC(=N)N)NC(=O)[C@@H](N)Cc1ccccc1)C(C)C)C(=O)N[C@@H](Cc1ccccc1)C(=O)N[C@@H](CCC(N)=O)C(=O)N[C@@H](CO)C(=O)N1CCC[C@H]1C(=O)N[C@@H](Cc1ccccc1)C(=O)N[C@@H](C)C(=O)N[C@@H](CO)C(=O)N[C@@H](CCC(N)=O)C(=O)N[C@@H](CO)C(=O)N[C@@H](CCCNC(=N)N)C(=O)NCC(=O)N[C@@H](Cc1ccc(O)cc1)C(=O)N[C@@H](Cc1ccccc1)C(=O)N[C@@H](CC(C)C)C(=O)N[C@@H](Cc1ccccc1)C(=O)N[C@@H](CCCNC(=N)N)C(=O)N1CCC[C@H]1C(=O)N[C@@H](CCCNC(=N)N)C(=O)N[C@@H](CC(N)=O)C(N)=O)C(=O)O` [SEQ ID NO 14] (H-FRVDEK([γGlu-Palmitoyl])FQSPFASQSRGYFLFRPRN-NH2) was run?
A: 52.8 nM

Q: How did the EC50 turn out when `CCCCCCCCCCCCCCCC(=O)N[C@@H](CCC(=O)NCCCC[C@H](NC(=O)[C@@H](NC(=O)[C@H](CCCNC(=N)N)NC(=O)[C@@H](N)Cc1ccccc1)C(C)C)C(=O)N[C@@H](CCC(=O)O)C(=O)N[C@@H](CCC(=O)O)C(=O)N[C@@H](Cc1ccccc1)C(=O)N[C@@H](CCC(N)=O)C(=O)N[C@@H](CO)C(=O)N1CCC[C@H]1C(=O)N[C@@H](Cc1ccccc1)C(=O)N[C@@H](C)C(=O)N[C@@H](CO)C(=O)N[C@@H](CCC(N)=O)C(=O)N[C@@H](CO)C(=O)N[C@@H](CCCNC(=N)N)C(=O)NCC(=O)N[C@@H](Cc1ccc(O)cc1)C(=O)N[C@@H](Cc1ccccc1)C(=O)N[C@@H](CC(C)C)C(=O)N[C@@H](Cc1ccccc1)C(=O)N[C@@H](CCCNC(=N)N)C(=O)N1CCC[C@H]1C(=O)N[C@@H](CCCNC(=N)N)C(=O)N[C@@H](CC(N)=O)C(N)=O)C(=O)O` [SEQ ID NO 17] (H-FRVK([γGlu-Palmitoyl])EEFQSPFASQSRGYFLFRPRN-NH2) was run?
A: 50.5 nM
